# Source: patent EP2003118A1, “Cinnamic acid derivatives as modulators of EP2 receptors” (Bayer Schering Pharma Aktiengesellschaft, priority 2007, dated 2008)
# Key:
# [1] = molecular target: T1, EP2-Subtyp des humanen PGE2-Rezeptors (Homo sapiens, UniProt P43116); assay: cAMP antagonism test (HTRF cAMP, in presence of PGE2); format: cell-based; details: cAMP Antagonismustest, PGE2 as agonist; read-out: Antagonismus [IC50
# T1 construct: host or cells: cells in a culture plate
# Text: Die Bindung von PGE2 an den EP2-Subtyp des humanen PGE2-Rezeptors induziert die Aktivierung membranständiger Adenylatzyklasen und führt zur Bildung von cAMP. In Gegenwart des Phosphodiesteraseinhibitors IBMX wird das durch diese Stimulation akkumulierte und mittels Zell-Lyse freigesetzte cAMP in einem kompetitiven Nachweisverfahren eingesetzt. In diesem Test konkurriert das cAMP im Lysat mit cAMP-XL665 um die Bindung eines Eu-Kryptat markierten Anti-cAMP Antikörpers.
# Dabei entsteht in Abwesenheit von zellulärem cAMP ein maximales Signal, welches auf der Kopplung dieses Antikörpers an das cAMP-XL665 Molekül beruht. Dadurch entsteht nach Anregung bei 337 nm ein auf FRET (fluorescence resonance energy transfer) basierendes, lang anhaltendes Emissionssignal bei 665 nm (und bei […]). Beide Signale werden in einem geeigneten Messgerät zeitlich versetzt, d.h. nach Abklingen der Hintergrundsfluoreszenz gemessen. Jegliche Erhöhung des durch Prostglandin-E2-Gabe bedingten niedrigen FRET-Signals (gemessen als Well-Ratio-Veränderung = Emission665nm/Emission620nm * 10000) zeigt die Wirkung von Antagonisten.
# Die in einer Testplatte und 30 % DMSO vorgelegten Substanzlösungen (0.75 µl) werden in 16 µl einer KRSB+IBMX-Stimulationslösung gelöst (1 X Krebs-Ringer Bicarbonate Buffer; Sigma-Aldrich # K-4002; inklusive 750 µM 3-Isobutyl-1-methylxanthine Sigma-Aldrich # 1-7018), anschließend werden 15 µl davon in eine medienfreie Zellkulturplatte überführt, die kurz zuvor mit KRSB gewaschen worden war.
# Nach einer 30-minütigen Vorinkubation bei Raumtemperatur (RT) werden 5 µl einer 4xPGE2 Lösung (11 nM) zugegeben und in Gegenwart des Agonisten für weitere 60 min bei RT inkubiert (Volumen: ~ 20 µl), bevor die Reaktion anschlieβend durch Zugabe von 5 µl Lysispuffer gestoppt und für weitere 20 min bei RT inkubiert wird (Volumen: ~ 25 µl). Das Zell-Lysat wird anschließend in eine Messplatte überführt und entsprechend den Herstellerangaben (cyclic AMP kit Cisbio International # 62AMPPEC) gemessen.
# [2] = test system: Kumulus-Eizell Komplexe; assay: cumulus expansion test in vitro; format: cell-based, Mäusen; details: competing with PGE2
# Text: In immaturen weiblichen Mäusen (Stamm : CD1 (ICR) von Charles River) wird in einem Alter von 14 - 18 Tagen die Follikulogenese durch eine einmalige Gabe (intraperitoneal) von 10 I.E. PMSG (Pregnant Mare Serum Gonadotropine; Sigma G-4877, Lot 68H0909) induziert. 47 - 50 Stunden nach der Injektion werden die Ovarien entnommen und die Kumulus-Eizell Komplexe entnommen. Der Kumulus Komplex ist in diesem Stadium noch nicht expandiert. Die Kumulus-Eizell Komplexe werden nun für 20 - 24 Stunden mit Prostaglandin E2 (PGE2) (0,3 µM), Vehikel Kontrolle (Ethanol) oder Testsubstanzen inkubiert. Medium: alpha- MEM Medium mit 0,1 mM IBMX, Pyruvate (0,23 mM) Glutamine (2 mM), Pen/Strep 100 IU/ml Pen. und 100 µg/ml Strep.) und HSA (8 mg/ml)). Danach wird die Kumulus Expansion durch die Einteilung in vier Stadien (nach Vanderhyden et al. Dev Biol. 1990 Aug; 140(2):307-317) festgestellt. Tabelle 1: Beispiel für die biologische Wirksamkeit der erfindungsgemäßen Verbindungen (gemessen mittels cAMP Antagonismustest): […]
# [3] = molecular target: T1, EP2-Subtyp des humanen PGE2-Rezeptors; assay: cellular cAMP agonism test; format: cell-based
# T1 sequence (P43116 whole entry): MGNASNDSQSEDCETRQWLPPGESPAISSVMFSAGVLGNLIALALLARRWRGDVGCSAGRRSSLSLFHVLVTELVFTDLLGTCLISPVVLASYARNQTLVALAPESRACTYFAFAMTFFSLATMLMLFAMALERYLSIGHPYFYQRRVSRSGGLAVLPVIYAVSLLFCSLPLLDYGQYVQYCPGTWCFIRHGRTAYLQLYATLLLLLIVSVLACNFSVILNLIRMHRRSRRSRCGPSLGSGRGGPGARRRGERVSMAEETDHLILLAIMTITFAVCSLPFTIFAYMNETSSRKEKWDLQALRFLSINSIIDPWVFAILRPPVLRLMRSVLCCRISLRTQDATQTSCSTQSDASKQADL
IC50 [1] [µM],SMILES,also measured
1.5,"Cc1[nH]c2c(F)ccc(C)c2c1CCNC(=O)C=Cc1ccncc1 (mixture of isomers) [Beispiel 2, (E/Z)-N-[2-(7-Fluor-2,4-dimethyl-1H-indol-3-yl)-ethyl]-3-pyridin-4-yl-acrylamid]",–
–,"CC(C)Oc1ccc2c(=O)c3cc(C(=O)O)ccc3oc2c1 [AH 6809, reference compound]",Unterdrückung der Kumulus Expansion ([2]; 100 - 200 µM): ca. 30%
–,"Cc1[nH]c2c(F)ccc(C)c2c1CCNC(=O)/C=C/c1ccc2c(c1)OCO2 [Beispiel 1, (E)-3-Benzo[1,3]dioxol-5-yl-N-[2-(7-fluor-2,4-dimethyl-1H-indol-3-yl)-ethyl]-acrylamid]",Unterdrückung der Kumulus Expansion ([2]; at a 10-fold lower concentration than AH 6809 (100 - 200 µM)): 61%
1,"Cc1[nH]c2c(F)ccc(C)c2c1CCNC(=O)/C=C/c1cccc(S(N)(=O)=O)c1 [Beispiel 36, (E)-N-[2-(7-Fluor-2,4-dimethyl-1H-indol-3-yl)-ethyl]-3-(3-sulfamoyl-phenyl)-acrylamid]",Wirkung im zellulären Agonismustest [3]: keine Inhibition
1.5,"Cc1[nH]c2c(F)ccc(C)c2c1CCNC(=O)/C=C/c1cncc2ccccc12 [Beispiel 47, (E)-N-[2-(7-Fluor-2,4-dimethyl-1H-indol-3-yl)-ethyl]-3-isochinolin-4-yl-acrylamid]",–

SMILES,IC50 [1] [µM],also measured
"Cc1[nH]c2c(F)ccc(C)c2c1CCNC(=O)/C=C/c1ccc(OCCN(C)C)cc1 [Beispiel 18, (E)-3-[4-(2-Dimethylamino-ethoxy)-phenyl]-N-[2-(7-fluor-2,4-dimethyl-1H-indol-3-yl)-ethyl]-acrylamid]",2.2,–
